Test results published in patent US20250282776A1, “Bicyclic TLR7 Agonists and Uses Thereof” (Bristol-Myers Squibb Company, priority 2024, published 2025).

Experiments:
[1] = target: T1, human TLR7 (hTLR7) (Homo sapiens, UniProt Q9NYK1); assay: Human TLR7 agonist activity assay (HEK-Blue TLR7 SEAP reporter); type: cell-based; settings: HEK-Blue TLR7 cells, 18 h incubation, Quanti-Blue, OD 620 nm, some values average of multiple measurements
T1 construct: host or cells: HEK-Blue TLR7 cells (engineered human embryonic kidney cells)
T1 sequence (Q9NYK1 27-1049): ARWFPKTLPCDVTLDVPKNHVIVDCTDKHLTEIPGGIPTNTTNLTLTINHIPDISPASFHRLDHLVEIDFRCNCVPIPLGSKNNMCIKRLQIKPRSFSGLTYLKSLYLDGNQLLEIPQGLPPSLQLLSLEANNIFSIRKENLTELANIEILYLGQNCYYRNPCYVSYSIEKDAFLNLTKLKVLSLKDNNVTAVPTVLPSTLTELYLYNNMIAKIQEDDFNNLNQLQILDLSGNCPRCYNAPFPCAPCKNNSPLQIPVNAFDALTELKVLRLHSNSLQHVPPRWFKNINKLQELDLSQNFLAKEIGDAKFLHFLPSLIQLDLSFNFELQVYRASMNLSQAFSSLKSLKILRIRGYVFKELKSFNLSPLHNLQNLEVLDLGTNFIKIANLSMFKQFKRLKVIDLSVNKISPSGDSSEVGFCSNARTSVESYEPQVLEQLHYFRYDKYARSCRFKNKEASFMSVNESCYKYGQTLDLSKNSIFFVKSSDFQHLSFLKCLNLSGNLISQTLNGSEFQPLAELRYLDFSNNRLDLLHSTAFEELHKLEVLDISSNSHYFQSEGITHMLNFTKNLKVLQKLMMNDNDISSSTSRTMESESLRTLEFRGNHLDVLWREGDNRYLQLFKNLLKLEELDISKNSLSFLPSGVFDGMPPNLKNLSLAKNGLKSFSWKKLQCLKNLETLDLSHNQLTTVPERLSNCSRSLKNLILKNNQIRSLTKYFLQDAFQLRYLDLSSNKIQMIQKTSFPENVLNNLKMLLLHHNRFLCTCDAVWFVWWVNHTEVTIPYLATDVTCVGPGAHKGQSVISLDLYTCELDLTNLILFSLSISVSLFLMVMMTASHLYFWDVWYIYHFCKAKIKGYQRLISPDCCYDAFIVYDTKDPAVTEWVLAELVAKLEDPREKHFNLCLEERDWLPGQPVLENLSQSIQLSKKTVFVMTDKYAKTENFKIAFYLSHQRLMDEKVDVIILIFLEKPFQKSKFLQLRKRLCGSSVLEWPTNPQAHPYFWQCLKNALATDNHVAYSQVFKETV
Protocol: (§1) This procedure describes a method for assaying human TLR7 (hTLR7) and human TLR8 (hTLR8) agonist activity of the compounds disclosed herein.
(§2) HEK-Blue™ TLR7 cells were added to each well of a 384-well tissue-culture plate (15,000 cells per well) and incubated 16-18 h at 37° C., 5% CO2. Compounds (100 nL) were dispensed into wells containing the HEK-Blue™ TLR cells and the treated cells were incubated at 37° C., 5% CO2. After 18 h, ten microliters 5 of freshly prepared Quanti-Blue™ reagent (Invivogen) was added to each well and incubated for 30 min (37° C., […]). SLAP levels were measured using an Envision plate reader (OD=620 nm). The half maximal effective concentration values (ECSO; compound concentration which induced a response halfway between the assay baseline and maximum) were calculated. Some of the reported activities were the average of multiple measurements.

[2] = target: T2, human TLR8 (hTLR8) (Homo sapiens, UniProt Q9NR97); assay: Human TLR8 agonist activity assay (measured in a similar manner); type: cell-based; settings: HEK-Blue TLR cells, SEAP reporter, measured in a similar manner to TLR7; some values average of multiple measurements
T2 construct: expressed in transfected cells
T2 sequence (Q9NR97 27-1041): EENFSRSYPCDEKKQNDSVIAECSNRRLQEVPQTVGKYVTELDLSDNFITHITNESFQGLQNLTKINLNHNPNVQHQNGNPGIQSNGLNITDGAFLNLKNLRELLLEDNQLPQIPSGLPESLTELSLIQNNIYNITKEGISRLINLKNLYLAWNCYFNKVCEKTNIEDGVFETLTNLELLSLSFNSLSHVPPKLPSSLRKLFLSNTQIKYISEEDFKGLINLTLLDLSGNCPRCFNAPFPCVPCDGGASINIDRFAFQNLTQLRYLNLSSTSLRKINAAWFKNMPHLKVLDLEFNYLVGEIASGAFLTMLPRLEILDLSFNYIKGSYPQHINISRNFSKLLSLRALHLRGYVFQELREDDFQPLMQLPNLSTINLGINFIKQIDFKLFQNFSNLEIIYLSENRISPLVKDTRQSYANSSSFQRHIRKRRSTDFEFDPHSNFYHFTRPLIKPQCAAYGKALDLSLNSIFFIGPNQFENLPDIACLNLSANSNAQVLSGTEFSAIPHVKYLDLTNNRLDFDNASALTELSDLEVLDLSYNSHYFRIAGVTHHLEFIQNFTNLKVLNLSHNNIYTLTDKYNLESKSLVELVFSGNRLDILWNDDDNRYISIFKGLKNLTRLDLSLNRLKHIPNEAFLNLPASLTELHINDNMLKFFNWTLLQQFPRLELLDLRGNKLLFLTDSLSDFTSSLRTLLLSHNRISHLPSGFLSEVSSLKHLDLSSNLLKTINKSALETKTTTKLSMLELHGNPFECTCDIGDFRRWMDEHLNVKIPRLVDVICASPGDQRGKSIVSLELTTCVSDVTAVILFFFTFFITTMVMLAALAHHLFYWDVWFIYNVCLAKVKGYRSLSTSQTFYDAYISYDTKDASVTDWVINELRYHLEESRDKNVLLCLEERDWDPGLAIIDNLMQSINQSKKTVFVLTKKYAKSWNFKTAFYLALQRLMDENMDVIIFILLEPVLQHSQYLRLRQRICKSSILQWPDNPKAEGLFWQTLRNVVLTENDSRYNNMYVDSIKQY
Protocol: as §1
as §2, with “The half maximal effective concentration values (ECSO; compound concentration which induced a response halfway between the assay baseline and maximum) were calculated.” left out
TLR8 activity was measured in a similar manner.

EC50 [1] [nM] | EC50 [2] [nM] | Structure (SMILES)
1800 | 2500 | COc1cc(CN[C@H]2C[C@H](OC)C2)ccc1Cn1cc2nc(N)nc(N(CCO)CCCCF)c2n1 [Compound 170]
1410 | 608 | CCCCN(CCO)c1nc(N)nc2cn(Cc3ccc(CN[C@H]4C[C@H](OC)C4)c4c3OCCC4)nc12 [Compound 138]
1550 | 2170 | CCCCN(CCO)c1nc(N)nc2cn(Cc3ccc(CCNC4CCOCC4)cc3OC)nc12 [Compound 156]
2190 | 1800 | CCCCN(CCO)c1nc(N)nc2cn(Cc3ccc(CNC4CCC4)cc3NC)nc12 [Compound 102]
1180 | 705 | CCCCN(CCO)c1nc(N)nc2cn(Cc3ccc(CN4CC(O)C4)cc3OC)nc12 [Compound 20]
561 | 189 | CCCCN(CCO)c1nc(N)nc2cn(Cc3ccc(CNC4CCOC(C)C4)cc3OC)nc12 (single isomer, unassigned) [Compound 122]
1600 | 1570 | CCCCN(CCO)c1nc(N)nc2cn(Cc3ccc(CN[C@H]4C[C@H](OCC)C4)cc3OC)nc12 [Compound 101]
1580 | 2500 | CCCCN(CCO)c1nc(N)nc2cn(Cc3c(F)cc(CN[C@H]4C[C@@H](OC)C4)cc3F)nc12 [Compound 118]
1330 | 1500 | CCCCN(CCO)c1nc(N)nc2cn(Cc3ccc(CN[C@@H]4COC[C@@H]4F)cc3OC)nc12 [Compound 54]
970 | 596 | CCCCN(CCO)c1nc(N)nc2cn(Cc3ccc(CNC4CCOCC4)cc3OC)nc12 [Compound 3]
1910 | 1900 | CCCCN(CCO)c1nc(N)nc2cn(Cc3ccc(CNC[C@H]4C[C@H](O)C4)cc3OC)nc12 [Compound 23]

More lines, now with the values behind:

Structure (SMILES) | EC50 [1] [nM] | EC50 [2] [nM]
CCCCN(CCO)c1nc(N)nc2cn(Cc3ccc(CNC4CCOCC4)cc3)nc12 [Compound 158] | 1160 | 389
CCCCN(CCO)c1nc(N)nc2cn(Cc3ccc(CN[C@@H]4CCOC4)n4ncnc34)nc12 [Compound 172] | 870 | 1350
CCCCN(CCO)c1nc(N)nc2cn(Cc3cc(OC)c(C4CCN(C(C)C)CC4)cc3OC)nc12 [Compound 110] | 39 | 702
CCCCN(CCO)c1nc(N)nc2cn(Cc3c(F)cc(CN[C@@H]4CCOC4)cc3F)nc12 [Compound 116] | 31 | 1020
CCCCN(c1nc(N)nc2cn(Cc3ccc(CN4CCCCC4)cc3OC)nc12)C(C)CO (single isomer, unassigned) [Compound 49-1, 2-((5-amino-2-(2-methoxy-4-(piperidin-1-ylmethyl)benzyl)-2H-pyrazolo[4,3-d]pyrimidin-7-yl)(butyl)amino)propan-1-ol] | 374 | 949
CCCCN(CCO)c1nc(N)nc2cn(Cc3ccc(CN4CCCC4)cc3C(F)F)nc12 [Compound 97] | 1050 | 1050
CCCCN(CCO)c1nc(N)nc2cn(Cc3c(F)cc(N4CCC(N[C@@H]5CCCOC5)CC4)cc3F)nc12 [Compound 132] | 389 | 1860
CCCCN(CCO)c1nc(N)nc2cn(Cc3ccc(CNC4CCC4)c4scnc34)nc12 [Compound 184] | 401 | 310
CCCCN(CCO)c1nc(N)nc2cn(Cc3cc(OC)c(C4CCN(CC(C)(C)O)CC4)cc3OC)nc12 [Compound 107] | 1280 | 3030
CCCCN(CCO)c1nc(N)nc2cn(Cc3c(F)cc(CN[C@H]4C[C@H](O)C4)cc3F)nc12 [Compound 117] | 1190 | 1970
CCCCN(CCO)c1nc(N)nc2cn(Cc3ccc(CNC4CCC4)cc3C(F)F)nc12 [Compound 98] | 1560 | 1150
CCCCN(CCO)c1nc(N)nc2cn(Cc3c(F)cc(C4CCN(CCO)CC4)cc3OC)nc12 [Compound 35] | 551 | 1850
CCCCN(CCO)c1nc(N)nc2cn(Cc3ncc(CNC(C)(C)C)cc3OC)nc12 [Compound 201] | 1350 | 3140
